We go through 7 molecules from patent US20240425523A1, “Compounds for the Degradation of EGFR Kinase” (Beigene Switzerland GMBH, priority 2023, published 2024).

By IC50 is commonly meant the point on the concentration scale where inhibition reaches its midpoint. A high value points to weaker potency. In general, DC50 refers to the concentration at which degradation of the target reaches its halfway point. One may read the Dmax as the largest share of the target that was removed. The low end stands for a partial loss of target, the high end for a fuller loss of target.

Holding throughout (format): cell-based
Assay [1] has as its target T1, p-EGFR L858R (BaF3-L858R cells) (Homo sapiens, UniProt P00533, L858R).
T1 construct: host or cells: BaF3
The experiment in a line: Cell p-EGFR inhibition assay, HTRF, BaF3-L858R cells. The note with it: 16 h treatment; for Imax (%): maximum percentage of pEGFR inhibition; for IC50: pEGFR inhibition. A digest of the protocol:
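BaF3-L858R cells treated 16 h at 37 °C, 5% CO2 with compound from 10 uM top, 5-fold dilutions, 8 doses, in 0.1% DMSO medium. Lysates read overnight by HTRF p-EGFR antibodies; IC50 fitted to four-parameter curve against DMSO high control.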

For assay [2], the target named is p-EGFR Del19/C797S (H1975-clone #23 cells) (Homo sapiens, UniProt P00533). Put plainly: Cell p-EGFR inhibition assay, HTRF, H1975-clone#23 (DEL19/C797S) cells. The note with it: 16 h treatment; for Imax (%): maximum percentage of pEGFR inhibition; for IC50: pEGFR inhibition. A digest of the protocol: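 Phospho-EGFR read by overnight HTRF on lysates, normalized to DMSO-treated high control; IC50, Hill slope and Imax fitted. Compounds were applied for 16 h (10 uM top, 5-fold steps, 8 doses) to an H1975 single clone carrying only exogenous Del19/C797S EGFR after sgRNA knockout of endogenous copies.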
(TR-FRET usually uses a lanthanide donor and a delayed reading to cut background.)

Assay [3] addresses T2, EGFR L858R (BaF3-L858R cells) (Homo sapiens, UniProt P00533, L858R).
T2 construct: host or cells: BaF3
The experiment in a line: Cell degradation of EGFR, HTRF assay, BaF3-L858R cells. The following applies: 16 h treatment; for DC50: EGFR degradation; for Dmax: maximum percentage of degradation. Put shortly: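 BaF3-L858R cells treated 16 h at 37° C, 5% CO2 with compound (top 10 uM final, 5-fold, 8 doses, 0.1% DMSO). DC50 from four-parameter fit; Dmax is maximum percent degradation.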

Assay [4] deals with T3, EGFR-L858R/C797S (H1975-clone #8 cells) (Homo sapiens, UniProt P00533, C797S/L858R).
T3 construct: expressed in transfected cells; host or cells: H1975 (endogenous EGFR knocked out, clone #8)
Put plainly: Cell degradation of EGFR, HTRF assay, H1975-clone#8 (L858R/C797S) cells. The note with it: 16 h treatment; for DC50: EGFR degradation; for Dmax: maximum percentage of degradation.

As to `Cc1cc2cc(n1)-c1cnn(C)c1OC[C@H]1CC[C@H](C1)CN1/C(=N/C2=O)Nc2ccc(N3CCC(N4CC(Nc5cc(F)c([C@H]6CCC(=O)NC6=O)c(F)c5)C4)CC3)cc21` [Example 112, (R)-3-(4-((1-(1-((7^1R,7^3S,E)-1^1,2^6-dimethyl-3-oxo-5^2,5^3-dihydro-1^1H,5^1H-9-oxa-4-aza-5(2,1)-benzo[d]imidazola-2(2,4)-pyridina-1(4,5)-pyrazola-7(1,3)-cyclopentanacyclononaphane-5^6-yl)piperidin-4-yl)azetidin-3-yl)amino)-2,6-difluorophenyl)piperidine-2,6-dione], in assay [1], the “Imax (%)” value was found to be 104.4% and the IC50 was found to be 15.4 nM. Further, in assay [2], the “Imax (%)” value was found to be 98.9% and the IC50 came to 0.4 nM. Besides, in assay [3], the DC50 turned out to be 2.2 nM and the Dmax was 72.8%. Also, in assay [4], it took 0.41 nM to reach half-maximal degradation (DC50) and the Dmax came out at 67.5%.
Consider `Cc1cc2cc(n1)-c1c(C)nn(C)c1OC[C@H]1CC[C@H](C1)CN1/C(=N/C2=O)Nc2ccc(N3CCN(CC4CN(c5cc(F)c([C@H]6CCC(=O)NC6=O)c(F)c5)C4)CC3)cc21` [Example 199, (R)-3-(2,6-difluoro-4-(3-((4-((7^1R,7^3S,E)-1^1,1^3,2^6-trimethyl-3-oxo-5^2,5^3-dihydro-1^1H,5^1H-9-oxa-4-aza-5(2,1)-benzo[d]imidazola-2(2,4)-pyridina-1(4,5)-pyrazola-7(1,3)-cyclopentanacyclononaphane-5^6-yl)piperazin-1-yl)methyl)azetidin-1-yl)phenyl)piperidine-2,6-dione], for which the “Imax (%)” value in assay [1] came to 99.05%; in assay [2] it was 102.91%. Moreover, the IC50 was under 0.128 nM in assay [1] and 2.92 nM in assay [2]. In addition, the DC50 in assay [3] was determined as 6.02 nM; in assay [4], 2.28 nM. Moreover, the results for the Dmax in assay [3] and in assay [4] were 82.5% and 91.8%, respectively.
`COC[C@@H]1CN(c2ccc3c(c2)N2CC4CC[C@H](COc5c(c(C)nn5C)-c5cc(cc(C)n5)C(=O)/N=C/2N3)C4)CCN1CC1CCN(c2cc(F)c([C@H]3CCC(=O)NC3=O)c(F)c2)CC1` [Example 127, (R)-3-(2,6-difluoro-4-(4-(((S)-2-(methoxymethyl)-4-((7^1R,7^3S,E)-1^1,1^3,2^6-trimethyl-3-oxo-5^2,5^3-dihydro-1^1H,5^1H-9-oxa-4-aza-5(2,1)-benzo[d]imidazola-2(2,4)-pyridina-1(4,5)-pyrazola-7(1,3)-cyclopentanacyclononaphane-5^6-yl)piperazin-1-yl)methyl)piperidin-1-yl)phenyl)piperidine-2,6-dione]: in assay [1], the “Imax (%)” value came out at 101.7% and half-maximal inhibition (IC50) was put at 4.89 nM. Further, in assay [2], the “Imax (%)” value is listed as 100.85% and half-maximal inhibition (IC50) was put at 4.06 nM. Further, in assay [3], half-maximal degradation (DC50) was put at 9.26 nM and the Dmax amounted to 88.8%. In assay [4], the DC50 worked out at 6.07 nM and the Dmax worked out at 81.9%.
With `COC[C@H]1CN(c2ccc3c(c2)N2C[C@@H]4CC[C@H](COc5c(c(C)nn5C)-c5cc(cc(C)n5)C(=O)/N=C/2N3)C4)CCN1C1CN(C2CCN(c3cc(F)c([C@H]4CCC(=O)NC4=O)c(F)c3)CC2)C1` [Example 206, (R)-3-(2,6-difluoro-4-(4-(3-((R)-2-(methoxymethyl)-4-((7R,7^3S,E)-1^1,1^32^6-trimethyl-3-oxo-5^2,5^3-dihydro-1^1H,5^1H-9-oxa-4-aza-5(2,1)-benzo[d]imidazola-2(2,4)-pyridina-1(4,5)-pyrazola-7(1,3)-cyclopentanacyclononaphane-5^6-yl)piperazin-1-yl)azetidin-1-yl)piperidin-1-yl)phenyl)piperidine-2,6-dione], in assay [1], the “Imax (%)” value amounted to 94.08% and the IC50 came out at 1.17 nM. In assay [2], the “Imax (%)” value was 99.52% and the midpoint of inhibition, the IC50, lay at 0.851 nM. Further, in assay [3], the DC50 is 1.1 nM and the Dmax was 92.1%. In assay [4], half-maximal degradation (DC50) was put at 0.54 nM and the Dmax stood at 90.7%.
`Cc1cc2cc(n1)-c1cnn(C)c1OC[C@H]1CC[C@H](C1)CN1/C(=N/C2=O)Nc2ccc(N3CCN(C4CCN(c5ccc([C@H]6CCC(=O)NC6=O)nc5C)CC4)[C@H](C)C3)cc21` [Example 162, 3-(5-(4-((R)-4-((7^1R,7^3S,E)-1^1,2^6-dimethyl-3-oxo-5^2,5^3-dihydro-1^1H,5^1H-9-oxa-4-aza-5(2,1)-benzo[d]imidazola-2(2,4)-pyridina-1(4,5)-pyrazola-7(1,3)-cyclopentanacyclononaphane-5^6-yl)-2-methylpiperazin-1-yl)piperidin-1-yl)-6-methylpyridin-2-yl)piperidine-2,6-dione]: in assay [1], the “Imax (%)” value came to 93.37% and the IC50 was 3.68 nM. For the same molecule, in assay [2], the “Imax (%)” value was 95.16% and the IC50 is 0.21 nM. In assay [3], this molecule gave a DC50 of 4.86 nM and a Dmax of 88.6%. In assay [4], half-maximal degradation (DC50) was put at 3.14 nM and the Dmax is 85.4%.
In the case of `Cc1cc2cc(n1)-c1cnn(C)c1OC[C@H]1CCC(C1)CN1/C(=N/C2=O)Nc2ccc(N3CCN([C@H]4CCN(c5ccc(C6CCC(=O)NC6=O)nc5C)CC4(F)F)CC3)cc21` (stereo partly drawn) [Example 83, 3-(5-((S)-4-(4-((7^1R,7^3S,E)-1^1,2^6-dimethyl-3-oxo-5^2,5^3-dihydro-1^1H,5^1H-9-oxa-4-aza-5(2,1)-benzo[d]imidazola-2(2,4)-pyridina-1(4,5)-pyrazola-7(1,3)-cyclopentanacyclononaphane-5^6-yl)piperazin-1-yl)-3,3-difluoropiperidin-1-yl)-6-methylpyridin-2-yl)piperidine-2,6-dione], the “Imax (%)” value in assay [1] worked out at 96.5%; in assay [2] it was 100.7%. For the same molecule, the IC50 in assay [1] turned out to be 18 nM; in assay [2], 1 nM. Also, the DC50 in assay [3] was 4.08 nM; in assay [4], 5.64 nM. Moreover, the Dmax in assay [3] worked out at 69.1%; in assay [4], 81.8%.
In the case of `Cc1cc2cc(n1)-c1c(C)nn(C)c1OC[C@H]1CC[C@H](C1)CN1/C(=N/C2=O)Nc2ccc(N3C[C@@H](C)N(C4CCN(c5cc(F)c([C@H]6CCC(=O)NC6=O)c(F)c5)CC4)C[C@H]3C)cc21` [Example 196, (R)-3-(4-(4-((2R,5R)-2,5-dimethyl-4-((7^1R,7^3S,E)-1^1,1^32^6-trimethyl-3-oxo-5^2,5^3-dihydro-1^1H,5^1H-9-oxa-4-aza-5(2,1)-benzo[d]imidazola-2(2,4)-pyridina-1(4,5)-pyrazola-7(1,3)-cyclopentanacyclononaphane-5^6-yl)piperazin-1-yl)piperidin-1-yl)-2,6-difluorophenyl)piperidine-2,6-dione], the entries for the “Imax (%)” value in assay [1] and in assay [2] were 85.84% and 99.76%, respectively. In addition, the figures for the IC50 in assay [1] and in assay [2] were 3.09 nM and 2.81 nM, respectively. The figures for the DC50 in assay [3] and in assay [4] were 1.61 nM and 3.21 nM, respectively. Further, the Dmax in assay [3] came to 91.9%; in assay [4], 88.8%.
